Data: US9580390B2, “Indazole compounds as kinase inhibitors and method of treating cancer with same” (University Health Network, priority 2011, dated 2017)

Assays:
human TTK = target: T1, human TTK (Homo sapiens, UniProt P33981); test: TTK inhibition assay (indirect ELISA); assay type: biochemical; conditions: read-out: TTK IC50 Range
T1 construct: amino terminal GST fusion of full length human TTK; purchased Invitrogen
T1 sequence (P33981 1-857): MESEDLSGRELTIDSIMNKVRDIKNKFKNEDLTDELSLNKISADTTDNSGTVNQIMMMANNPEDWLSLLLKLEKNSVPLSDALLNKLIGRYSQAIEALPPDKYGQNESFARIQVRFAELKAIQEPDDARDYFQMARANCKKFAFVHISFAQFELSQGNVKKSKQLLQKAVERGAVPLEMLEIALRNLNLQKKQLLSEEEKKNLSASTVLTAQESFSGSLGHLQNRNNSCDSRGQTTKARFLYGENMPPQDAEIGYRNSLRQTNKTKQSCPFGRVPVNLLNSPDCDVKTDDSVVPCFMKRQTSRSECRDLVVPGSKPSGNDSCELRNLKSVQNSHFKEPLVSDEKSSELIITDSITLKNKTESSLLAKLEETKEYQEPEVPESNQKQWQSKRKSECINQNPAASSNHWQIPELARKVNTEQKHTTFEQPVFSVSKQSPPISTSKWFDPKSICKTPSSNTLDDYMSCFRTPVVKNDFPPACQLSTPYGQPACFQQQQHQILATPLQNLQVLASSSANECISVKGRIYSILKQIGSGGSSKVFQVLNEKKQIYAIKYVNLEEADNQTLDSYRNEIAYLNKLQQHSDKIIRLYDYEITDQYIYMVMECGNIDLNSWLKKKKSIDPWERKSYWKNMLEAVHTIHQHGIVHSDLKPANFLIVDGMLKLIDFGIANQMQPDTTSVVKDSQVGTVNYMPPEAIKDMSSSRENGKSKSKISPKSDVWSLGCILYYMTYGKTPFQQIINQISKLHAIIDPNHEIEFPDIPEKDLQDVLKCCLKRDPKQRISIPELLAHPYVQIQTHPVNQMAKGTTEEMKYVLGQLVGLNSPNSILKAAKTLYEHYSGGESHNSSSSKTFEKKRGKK

Breast cancer cells = test: Cancer cell line growth inhibition (SRB assay); assay type: cell-based; conditions: Homo sapiens; MDA-MB-468; read-out: Cancer Cell Line GI50 Range MDA-MB-468
[1] = test system: colon cancer cells (HCT116); test: Cancer cell line growth inhibition (SRB assay); assay type: cell-based; conditions: Homo sapiens, HCT-116; read-out: Cancer Cell Line GI50 Range HCT116
[2] = test system: ovarian cancer cells (PA-1); test: Cancer cell line growth inhibition (SRB assay); assay type: cell-based; conditions: Homo sapiens, PA-1; read-out: Cancer Cell Line GI50 Range PA-1

Row | Compound | IC50 (human TTK) [nM] | GI50 (Breast cancer cells) [nM] | GI50 [1] [nM] | GI50 [2] [nM]
1 | CN1CC2(CC(O)c3cc(-c4n[nH]c5ccc(C(=O)N[C@H](c6ccccc6)C6CC6)cc45)ccc3O2)C1 (stereo partly drawn) [Example A256, N-((S)-cyclopropyl(phenyl)methyl)-3-(4′-hydroxy-1-methylspiro(azetidine-3,2-chroman]-6′-yl)-1H-indazole-5-carboxamide] | 100 to 500 | > 500 | > 500 | > 500
2 | O=C(N[C@H](c1ccccn1)C1CC1)c1ccc2[nH]nc(-c3ccc4c(c3)C(=O)CC3(CCOCC3)O4)c2c1 [Example A262, (S)-N-(cyclopropyl(pyridin-2-yl)methyl)-3-(4-oxo-2′,3′,5′,6′-tetrahydrospiro[chroman-2,4′-pyran]-6-yl)-1H-indazole-5-carboxamide] | < 100 | 100 to 500 | 100 to 500 | 100 to 500
3 | O=CN1CCC2(CC1)CC(=O)c1cc(-c3n[nH]c4ccc(C(=O)N[C@H](c5ccccn5)C5CC5)cc34)ccc1O2 [Example A263, (S)-N-(cyclopropyl(pyridin-2-yl)methyl)-3-(1′-formyl-4-oxospiro[chroman-2,4′-piperidin]-6-yl)-1H-indazole-5-carboxamide] | < 100 | 100 to 500 | 100 to 500 | < 100
4 | O=C(N[C@H](c1ccccn1)C1CC1)c1cc2c(-c3ccc(N4C5CCC4CC(O)C5)cc3)n[nH]c2cc1F (stereo partly drawn) [Example A271, N-((S)-cyclopropyl(pyridin-2-yl)methyl)-6-fluoro-3-(4-((1R,3R,5S)-3-hydroxy-8-azabicyclo[3.2.1]octan-8-yl)phenyl)-1H-indazole-5-carboxamide] | < 100 | > 500 | > 500 | 100 to 500
5 | O=C(N[C@H](c1ccccn1)C1CC1)c1cc2c(-c3ccc(N4[C@@H]5CC[C@H]4COC5)cc3)n[nH]c2cc1F [Example A272, 3-(4-((1R,5S)-3-oxa-8-azabicyclo[3.2.1]octan-8-yl)phenyl)-N-((S)-cyclopropyl(pyridin-2-yl)methyl)-6-fluoro-1H-indazole-5-carboxamide] | < 100 | > 500 | 100 to 500 | 100 to 500
6 | CC(C)C(NC(=O)c1ccc2[nH]nc(-c3ccc(O[C@H]4C[C@H]5CC[C@@H](C4)N5C)cc3)c2c1)c1ccccc1F (stereo partly drawn) [Example A281, N-(1-(2-fluorophenyl)-2-methylpropyl)-3-(4-(((1R,3R,5S)-8-methyl-8-azabicyclo[3.2.1]octan-3-yl)oxy)phenyl)-1H-indazole-5-carboxamide] | < 100 | 100 to 500 | < 100 | < 100
7 | CN1[C@@H]2CC[C@H]1C[C@@H](Oc1ccc(-c3n[nH]c4ccc(C(=O)NC(c5ccccc5Cl)C5CCCC5)cc34)cc1)C2 (stereo partly drawn) [Example A284, N-((2-chlorophenyl)(cyclopentyl)methyl)-3-(4-(((1R,3R,5S)-8-methyl-8-azabicyclo[3.2.1]octan-3-yl)oxy)phenyl)-1H-indazole-5-carboxamide] | < 100 | 100 to 500 | 100 to 500 | 100 to 500
8 | CN1[C@@H]2CC[C@H]1C[C@H](Oc1ccc(-c3n[nH]c4ccc(C(=O)NC(c5ccccc5)C5CC5)cc34)cc1)C2 (stereo partly drawn) [Example A286, N-(cyclopropyl(phenyl)methyl)-3-(4-(((1R,3S,5S)-8-methyl-8-azabicyclo[3.2.1]octan-3-yl)oxy)phenyl)-1H-indazole-5-carboxamide] | < 100 | < 100 | < 100 | < 100
9 | CC(C)C[C@H](NC(=O)c1ccc2[nH]nc(-c3ccc(N4C5CCCC4CC(O)C5)cc3)c2c1)c1ccccn1 (stereo partly drawn) [Example A304, 3-(4-((1R,3S,5S)-3-hydroxy-9-azabicyclo[3.3.1]nonan-9-yl)phenyl)-N-((S)-3-methyl-1-(pyridin-2-yl)butyl)-1H-indazole-5-carboxamide] | < 100 | 100 to 500 | 100 to 500 | 100 to 500
10 | CC(C)C(NC(=O)c1ccc2[nH]nc(-c3ccc(O[C@H]4C[C@H]5CC[C@@H](C4)N5C4COC4)cc3)c2c1)c1ccccc1Cl (stereo partly drawn) [Example A324, N-(1-(2-chlorophenyl)-2-methylpropyl)-3-(4-(((1R,3R,5S)-8-(oxetan-3-yl)-8-azabicyclo[3.2.1]octan-3-yl)oxy)phenyl)-1H-indazole-5-carboxamide] | < 100 | 100 to 500 | 100 to 500 | 100 to 500
11 | CC(C)CC(NC(=O)c1ccc2[nH]nc(-c3ccc(O[C@H]4C[C@H]5CC[C@@H](C4)N5C4COC4)cc3)c2c1)c1ccccc1 (stereo partly drawn) [Example A338, N-(3-methyl-1-phenylbutyl)-3-(4-(((1R,3R,5S)-8-(oxetan-3-yl)-8-azabicyclo[3.2.1]octan-3-yl)oxy)phenyl)-1H-indazole-5-carboxamide] | < 100 | 100 to 500 | 100 to 500 | 100 to 500
12 | CC(C)CC(NC(=O)c1ccc2[nH]nc(-c3ccc(O[C@H]4C[C@H]5CC[C@@H](C4)N5C=O)cc3)c2c1)c1ccccc1 (stereo partly drawn) [Example A340, 3-(4-(((1R,3R,5S)-8-formyl-8-azabicyclo[3.2.1]octan-3-yl)oxy)phenyl)-N-(3-methyl-1-phenylbutyl)-1H-indazole-5-carboxamide] | < 100 | 100 to 500 | 100 to 500 | < 100

Further lines, results first:

Row | IC50 (human TTK) [nM] | GI50 (Breast cancer cells) [nM] | GI50 [1] [nM] | GI50 [2] [nM] | Compound
13 | < 100 | 100 to 500 | < 100 | < 100 | O=C(N[C@@H](c1ccccc1F)C1CC1)c1ccc2[nH]nc(-c3ccc(N4CCN(C5COC5)CC4)cc3)c2c1 [Example A270, (R)-N-(cyclopropyl(2-fluorophenyl)methyl)-3-(4-(4-(oxelan-3-yl)piperazin-1-yl)phenyl)-1H-indazole-5-carboxamide]
14 | < 100 | 100 to 500 | < 100 | < 100 | CC(C)C[C@H](NC(=O)c1ccc2[nH]nc(-c3ccc(N4CC(N5CCOCC5)C4)cc3)c2c1)c1ccccc1F [Example A276, (S)-N-(1-(2-fluorophenyl)-3-methylbutyl)-3-(4-(3-morpholinoazetidin-1-yl)phenyl)-1H-indazole-5-carboxamide]
15 | < 100 | > 500 | 100 to 500 | 100 to 500 | CC(C)C(NC(=O)c1ccc2[nH]nc(-c3ccc(OC4CN(C)C4)cc3)c2c1)c1ccccc1Cl (centres unmarked) [Example A289, N-(1-(2-chlorophenyl)-2-methylpropyl)-3-(4-((1-methylazetidin-3-yl)oxy)phenyl)-1H-indazole-5-carboxamide]
16 | < 100 | < 100 | < 100 | < 100 | CCC(CC)C(NC(=O)c1ccc2[nH]nc(-c3ccc(OC4CCN(C5COC5)CC4)cc3)c2c1)c1ccccn1 (centres unmarked) [Example A292, N-(2-ethyl-1-(pyridin-2-yl)butyl)-3-(4-((1-(oxetan-3-yl)piperidin-4-yl)oxy)phenyl)-1H-indazole-5-carboxamide]
17 | < 100 | 100 to 500 | < 100 | < 100 | CN1CC(Oc2ccc(-c3n[nH]c4ccc(C(=O)N[C@H](c5ccccn5)C5CCCC5)cc34)cc2)C1 [Example A295, (S)-N-(cyclopentyl(pyridin-2-yl)methyl)-3-(4-((1-methylazetidin-3-yl)oxy)phenyl)-1H-indazole-5-carboxamide]
18 | < 100 | < 100 | < 100 | < 100 | O=C(N[C@@H](c1ncccn1)C1CCCC1)c1ccc2[nH]nc(-c3ccc(N4CC(C5COC5)C4)cc3)c2c1 [Example A312, (R)-N-(cyclopentyl(pyrimidin-2-yl)methyl)-3-(4-(3-(oxetan-3-yl)azetidin-1-yl)phenyl)-1H-indazole-5-carboxamide]
19 | < 100 | 100 to 500 | 100 to 500 | 100 to 500 | O=C(N[C@@H](c1ccccn1)C1CC1)c1ccc2[nH]nc(-c3ccc(N4CC(N5CCOCC5)C4)cc3)c2c1 [Example A316, (R)-N-(cyclopropyl(pyridin-2-yl)methyl)-3-(4-(3-morpholinoazetidin-1-yl)phenyl)-1H-indazole-5-carboxamide]
20 | < 100 | 100 to 500 | 100 to 500 | < 100 | CC(C)[C@@H](NC(=O)c1ccc2[nH]nc(-c3ccc(N4CC(N5CCOCC5)C4)cc3)c2c1)c1ccccc1Cl [Example A317, (R)-N-(1-(2-chlorophenyl)-2-methylpropyl)-3-(4-(3-morpholinoazetidin-1-yl)phenyl)-1H-indazole-5-carboxamide]
